Entries after “also recorded” stand apart in the source; their conditions may differ.
Key:
dogs = test: Ouabain-induced arrhythmia in dogs; type: in vivo, dog; settings: for Incidence of arrhythmia: I13 iv 3 mg/kg, lidocaine iv 12 mg/kg
Experimental: (iv, 12 mg/kg) on ouabain induced arrhythmia in dogs
(Ouabain administration for 30 min)

hypertrophic rat heart = test: Reperfusion-induced VF and VT in hypertrophic rat heart (L-thyroxine); type: in vivo
Experimental: 4. In the model of hypertrophic rat heart muscle disease caused by long term injections of L-thyroxine, high incidence of VF has been induced in vitro and in vivo when compared with the control after low perfusion-reperfusion or ischemia-reperfusion protocol. […] (shown in Tab 6)
Effect of I13 (100 mg/kg, ig administration at 1 hour before experiment)
on reperfusion-induced VF and VT in hypertrophic rat heart, a
myopathy induced by injecting L-thyroxin

rabbits [1] = test: Electrically-induced ventricular fibrillation threshold (VFT) in rabbits; type: in vivo, rabbit; settings: for VFT Before: baseline
[2] = test system: normal papillary muscles of guinea pig; test: Action potential of normal papillary muscles of guinea pig; type: cell-based; settings: for APA (action potential amplitude) / APD20 / APD50 / APD90 / ERP (effective refractory period) / RP (resting potential) / Vmax: n=7
Description: Effect of I13 on estimates of action potential of normal papillary

[3] = test system: guinea pig papillary muscles; test: Action potential of guinea pig papillary muscles under anoxia, high K+ and acidosis; type: cell-based
Description: Effect of I13 (μ mol/L) on estimates of action potential of guinea
papillary muscles under anoxia, high K^+ and acidosis

[4] = test system: pathological papillary muscles in rats (hypertrophy); test: Action potential in hypertrophic papillary muscles in rats (abdominal aorta occlusion); type: cell-based, rat
Description: (§1) Effect of I13 (μ mol/L) on estimates of action potential induced in
(§2) normal and pathological papillary muscles in rats.

[5] = test system: pathological papillary muscles in rats (cardiomyopathy); test: Action potential in papillary muscles of rats with cardiomyopathy (L-thyrotoxin); type: cell-based, rat
Description: as §1, §2

rabbits [6] = test: APD 24 hours after AMI in rabbits; type: in vivo, rabbit
Experimental: 24 hours after AMI, APD is markedly shortened.

[7] = test system: various experimental arrhythmic models; test: Overall antiarrhythmic, anti-VF and anti-ischemic activity (summary); type: in vivo
[8] = 100 mg/kg ig 1 hour before, n=10
[9] = anoxia, high K+ and acidosis, I13 concentration not given
[10] = hypertrophy, n=5, I13 concentration not given
[11] = cardiomyopathy, n=5, I13 concentration not given

Which results are given for `COc1ccc2c(c1OC)C[N+]1(Cc3ccc(Cl)cc3)CCc3cc4c(cc3C1C2)OCO4` (stereo not shown) [Compound I13, 7-(4-chlorobenzyl)-5,8,13,13a-tetrahydroberberine chloride]?
Incidence of arrhythmia (dogs; 0 min (before administration)): 97 ± 5%; Incidence of arrhythmia (dogs; 5 min): 83 ± 22%; Incidence of arrhythmia (dogs; 10 min): 72 ± 31%; Incidence of arrhythmia (dogs; 15 min): 59 ± 36%; Incidence of arrhythmia (dogs; 20 min): 45 ± 43%; Incidence of arrhythmia (dogs; 25 min): 40 ± 38%; Incidence of arrhythmia (dogs; 30 min): 27 ± 34%; Incidence of arrhythmia (dogs; 35 min): 26 ± 34%; Incidence of arrhythmia (dogs; 40 min): 14 ± 33%; Incidence of arrhythmia (dogs; 45 min): 12 ± 31%; Incidence of arrhythmia (dogs; 50 min): 11 ± 28%; Incidence of arrhythmia (dogs; 60 min): 8 ± 20%; inhibition of ouabain-induced arrhythmias (dogs; dogs): markedly inhibited; antiarrhythmic effect compared with lidocaine (dogs; i.v. gtt. 0.1 mg/kg/min for 30 mins vs lidocaine 0.4 mg/kg/min): the same antiarrhythmic effect as lidocaine; anti-arrhythmic activity relative to lidocaine (dogs; ouabain, dogs): 4 times; reoccurrence of arrhythmia (dogs; within 4 hour period): lack of reoccurrence of arrhythmia within a 4 hour period; Duration of VF (hypertrophic rat heart; [8]): 2.0 ± 3.0 min; Duration of VT (hypertrophic rat heart; [8]): 0.4 ± 0.8 min; Incidence of VF (hypertrophic rat heart; [8]): 30%; Incidence of VT (hypertrophic rat heart; [8]): 20%; inhibition of incidence of VF and VT (hypertrophic rat heart; p.o. 100 mg/kg one hour prior to ischemia): clearly inhibited the incidence of VF and VT; VFT Before (rabbits [1]; intra-duodenal 4.5 mg/kg group): 5.8 ± 0.3 volt; VFT Before (rabbits [1]; intra-duodenal 15 mg/kg group): 5.2 ± 0.9 volt; VFT Before (rabbits [1]; iv 1.5 mg/kg group): 5.2 ± 0.6 volt; potency in elevating VFT relative to lidocaine (rabbits [1]; i.v.): ten times more potent than lidocaine; AUC (area under curve, VFT effect) (rabbits [1]; id 4.5 mg/kg): 48.1; AUC (area under curve, VFT effect) (rabbits [1]; id 15 mg/kg): 83.7; VFT After (rabbits [1]; intra-duodenal 4.5 mg/kg): 8.9 ± 0.4 volt; ΔVFT (rabbits [1]; intra-duodenal 4.5 mg/kg): 3.1 ± 0.4 volt; ΔVFT % (rabbits [1]; intra-duodenal 4.5 mg/kg): 53.0 ± 7.6%; VFT After (rabbits [1]; intra-duodenal 15 mg/kg): 9.9 ± 2.2 volt; ΔVFT (rabbits [1]; intra-duodenal 15 mg/kg): 4.8 ± 1.5 volt; ΔVFT % (rabbits [1]; intra-duodenal 15 mg/kg): 92.1 ± 19.5%; AUC (area under curve, VFT effect) (rabbits [1]; iv 1.5 mg/kg): 11.1; VFT After (rabbits [1]; iv 1.5 mg/kg): 8.1 ± 1.1 volt; ΔVFT (rabbits [1]; iv 1.5 mg/kg): 2.8 ± 0.8 volt; ΔVFT % (rabbits [1]; iv 1.5 mg/kg): 54.4 ± 16.9%; AUC (area under curve, VFT effect) (rabbits [1]; iv 4.5 mg/kg): 14.4; VFT After (rabbits [1]; iv 4.5 mg/kg): 8.8 ± 1.1 volt; ΔVFT (rabbits [1]; iv 4.5 mg/kg): 3.6 ± 0.6 volt; ΔVFT % (rabbits [1]; iv 4.5 mg/kg): 72.2 ± 9.7%; influence on APA [2]: no influence; influence on RP [2]: no influence; influence on APD50 (printed ADP50) ([2]; 0.3 μmol/L): able to lengthen ADP50; APA (action potential amplitude) ([2]; 0.3 μmol/L): 125 ± 3 mv; APD20 ([2]; 0.3 μmol/L): 88 ± 13 ms; APD50 ([2]; 0.3 μmol/L): 176 ± 29 ms; APD90 ([2]; 0.3 μmol/L): 201 ± 30 ms; ERP (effective refractory period) ([2]; 0.3 μmol/L): 201 ± 28 ms; RP (resting potential) ([2]; 0.3 μmol/L): 91 ± 1 mv; Vmax ([2]; 0.3 μmol/L): 260 ± 60 v/s; APA (action potential amplitude) ([2]; 1 μmol/L): 123 ± 3 mv; APD20 ([2]; 1 μmol/L): 86 ± 10 ms; APD50 ([2]; 1 μmol/L): 181 ± 27 ms; APD90 ([2]; 1 μmol/L): 208 ± 29 ms; ERP (effective refractory period) ([2]; 1 μmol/L): 207 ± 27 ms; RP (resting potential) ([2]; 1 μmol/L): 90 ± 1 mv; Vmax ([2]; 1 μmol/L): 250 ± 70 v/s; APA (action potential amplitude) ([2]; 3 μmol/L): 123 ± 3 mv; APD20 ([2]; 3 μmol/L): 84 ± 8 ms; APD50 ([2]; 3 μmol/L): 182 ± 23 ms; APD90 ([2]; 3 μmol/L): 211 ± 26 ms; ERP (effective refractory period) ([2]; 3 μmol/L): 213 ± 18 ms; RP (resting potential) ([2]; 3 μmol/L): 89 ± 3 mv; Vmax ([2]; 3 μmol/L): 217 ± 60 v/s; APA (action potential amplitude) ([2]; 10 μmol/L): 122 ± 3 mv; APD20 ([2]; 10 μmol/L): 80 ± 5 ms; APD50 ([2]; 10 μmol/L): 161 ± 28 ms; APD90 ([2]; 10 μmol/L): 206 ± 26 ms; ERP (effective refractory period) ([2]; 10 μmol/L): 211 ± 23 ms; RP (resting potential) ([2]; 10 μmol/L): 89 ± 1 mv; Vmax ([2]; 10 μmol/L): 180 ± 60 v/s; APA (action potential amplitude) ([2]; 30 μmol/L): 116 ± 5 mv; APD20 ([2]; 30 μmol/L): 58 ± 11 ms; APD50 ([2]; 30 μmol/L): 128 ± 19 ms; APD90 ([2]; 30 μmol/L): 158 ± 22 ms; ERP (effective refractory period) ([2]; 30 μmol/L): 166 ± 24 ms; RP (resting potential) ([2]; 30 μmol/L): 87 ± 3 mv; Vmax ([2]; 30 μmol/L): 140 ± 50 v/s; influence on APD50 and APD90 (printed ADP50, ADP90) ([2]; 1 to 3 μmol/L): prolonged; inhibition at 3 µM ([2]; Cavia porcellus, 3 μmol/L, isolated papillary muscles of guinea pigs, read-out: inhibition of Vmax): 20%; antiarrhythmic class properties ([2]; electrophysiological studies): properties of Ia, Ib and III; two-phase effect on APD ([2]; low vs high concentrations): lengthened at low concentrations and shortened at high concentrations; Vmax under anoxia, high K+ and acidosis [3]: lowered; RP ([3]; anoxia, high K+ and acidosis, I13 (μmol/L, concentration not given), n=8): 85 ± 2 mv; APA [3, 9]: 116 ± 2 mv; APD20 [3, 9]: 78 ± 13 ms; APD50 [3, 9]: 156 ± 20 ms; APD90 [3, 9]: 170 ± 21 ms; ERP [3, 9]: 186 ± 19 ms; Vmax [3, 9]: 190 ± 40 v/s; influence on APD in hypertrophic myocardium [4]: could not be further exaggerated; also recorded: no action on hypertrophic myocardium; Vmax in left ventricular hypertrophy ([4]; abdominal aorta occlusion, rats): completely inhibited; APA [4, 10]: 104 ± 4 mv; APD20 [4, 10]: 8 ± 2 ms; APD50 [4, 10]: 20 ± 4 ms; APD90 [4, 10]: 45 ± 5 ms; ERP [4, 10]: 45 ± 9 ms; RP [4, 10]: 81 ± 3 mv; Vmax [4, 10]: 210 ± 40 v/s; Vmax in cardiomyopathy model ([5]; L-thyrotoxin, rats): completely inhibited; APA [5, 11]: 104 ± 7 mv; APD20 [5, 11]: 12 ± 3 ms; APD50 [5, 11]: 32 ± 4 ms; APD90 [5, 11]: 65 ± 5 ms; ERP [5, 11]: 66 ± 6 ms; RP [5, 11]: 81 ± 5 mv; Vmax [5, 11]: 160 ± 50 v/s; effect on APD shortening after AMI (rabbits [6]): could be cancelled; inhibition of ventricular fibrillation and myocardial ischemia ([7]; in vivo): inhibits ventricular fibrillation and myocardial ischemia; protection against arrhythmia, VF and myocardial ischemic injury ([7]; in vivo): advanced protection against arrhythmia, ventricular fibrillation (VF) and myocardial ischemic injury; antiarrhythmic effects ([7]; various experimental arrhythmic models): marked antiarrhythmic effects
